The values that follow are results of earlier work, collected in US20030180823A1, “Individualization of therapy with antihistamines” (Xanthus Life Sciences, Inc., priority 2001, published 2003).

The data set concerns skin tests. The settings on record: very long half-life.

With `COc1ccc(CCN2CCC(Nc3nc4ccccc4n3Cc3ccc(F)cc3)CC2)cc1` [Astemizole], the “duration of inhibiting skin tests” value is listed as “up to 6 weeks”.
